Measurements: ChEMBL document CHEMBL1133774, “'3+1' mixed-ligand oxotechnetium(V) complexes with affinity for melanoma: synthesis and evaluation in vitro and in vivo” (J Med Chem, 2000)

What was measured:
[1] = Biodistribution after 6 hours of postinjection in melanoma; assay type: ADME, organism-based; settings: in vivo
[2] = Biodistribution after 6 hours of postinjection in brain; assay type: ADME, organism-based; settings: in vivo
[3] = Biodistribution after 6 hours of postinjection in kidney; assay type: ADME, organism-based; settings: in vivo
[4] = Biodistribution after 1 hour of postinjection in kidney; assay type: ADME, organism-based; settings: in vivo
[5] = Biodistribution after 1 hour of postinjection in lungs; assay type: ADME, organism-based, Lung; settings: in vivo
[6] = Biodistribution after 1 hour of postinjection in heart; assay type: ADME, organism-based; settings: in vivo
[7] = Biodistribution after 1 hour of postinjection in blood; assay type: ADME, organism-based; settings: in vivo
[8] = Partition coefficient of the unprotonated free amine (logP); assay type: physicochemical; settings: octanol/water
[9] = Biodistribution after 1 hour of postinjection in spleen; assay type: ADME, organism-based; settings: in vivo
[10] = Biodistribution after 6 hours of postinjection in heart; assay type: ADME, organism-based; settings: in vivo
[11] = Biodistribution after 6 hours of postinjection in melanoma/spleen; assay type: ADME, organism-based; settings: in vivo
[12] = Biodistribution after 6 hours of postinjection in blood; assay type: ADME, organism-based; settings: in vivo
[13] = Biodistribution after 6 hours of postinjection in lungs; assay type: ADME, organism-based, Lung; settings: in vivo
[14] = Biodistribution after 6 hours of postinjection in liver; assay type: ADME, organism-based; settings: in vivo
[15] = Biodistribution after 1 hour of postinjection in brain; assay type: ADME, organism-based; settings: in vivo
[16] = Biodistribution after 1 hour of postinjection in liver; assay type: ADME, organism-based; settings: in vivo
[17] = aqueous ionization constant (pKa) determined by HPLC methods; assay type: physicochemical; settings: buffer
[18] = Biodistribution after 6 hours of postinjection in spleen; assay type: ADME, organism-based; settings: in vivo
[19] = Partition coefficient (logD7.4); assay type: physicochemical; settings: octanol/water, pH 7.4
[20] = Biodistribution after 1 hour of postinjection in melanoma; assay type: ADME, organism-based; settings: in vivo
[21] = Biodistribution after 6 hours of postinjection in melanoma/lungs; assay type: ADME, organism-based, Lung; settings: in vivo
[22] = Biodistribution after 1 hour of postinjection in melanoma/lungs; assay type: ADME, organism-based, Lung; settings: in vivo
[23] = Biodistribution after 6 hours of postinjection in muscle; assay type: ADME, organism-based, Muscle tissue; settings: in vivo
[24] = Biodistribution after 1 hour of postinjection in muscle; assay type: ADME, organism-based, Muscle tissue; settings: in vivo
[25] = Biodistribution after 1 hour of postinjection in melanoma/blood; assay type: ADME, organism-based; settings: in vivo
[26] = Biodistribution after 6 hours of postinjection in melanoma/blood; assay type: ADME, organism-based; settings: in vivo
[27] = Biodistribution after 1 hour of postinjection in melanoma/spleen; assay type: ADME, organism-based; settings: in vivo
[28] = Biodistribution after 1 hour of postinjection in melanoma/liver; assay type: ADME, organism-based; settings: in vivo
[29] = Biodistribution after 6 hours of postinjection in melanoma/liver; assay type: ADME, organism-based; settings: in vivo

Row | Substance | ID/g [1] | ID/g [3] | ID/g [4] | ID/g [5] | ID/g [6] | ID/g [7] | logP [8] | ID/g [9] | ID/g [10] | Ratio [11] | ID/g [12] | ID/g [13] | ID/g [14] | ID/g [15] | ID/g [16] | pKa [17] | ID/g [18] | logD [19] | ID/g [20] | Ratio [26] | also measured
1 | N-methyl-3-azapentane-1,5-dithiol complex [listing 1 of 6 here] | 1.39% | 12.9% | 24% | 13.2% | 2.09% | 3.28% | 3.6 | 6.04% | 0.86% | < 1 | 1.3% | 5.5% | 7.23% | 0.32% | 16.6% | 9.6 | 1.44% | 0.95 pH7.4 | 2.88% |  | ID/g [2]: 0.13%
2 | N-methyl-3-azapentane-1,5-dithiol complex [listing 3 of 6 here] | 1.53% | 11.3% | 19.4% | 5.75% | 1.26% | 2.36% | 1.2 | 5.57% | 0.83% | 1 |  | 2.91% | 1.53% | 0.64% | 4.02% | 7.2 | 2.91% | 1 pH7.4 | 2.16% | 1.1 | ID/g [2]: 0.26%; Ratio [21]: < 1; Ratio [22]: < 1; Ratio [25]: < 1
3 | N-methyl-3-azapentane-1,5-dithiol complex [listing 4 of 6 here] | 4.12% | 19.3% | 30.4% | 2.6% | 0.66% | 1.26% | 3.5 | 1.15% | 0.46% | 3.2 | 0.98% | 1.35% | 23% | 0.08% | 43.3% |  | 1.3% |  | 4.95% | 4.2 | Ratio [21]: 3.1; Ratio [27]: 4.3; Ratio [22]: 1.9; ID/g [23]: 0.2%; ID/g [24]: 0.24%; Ratio [25]: 3.9

Now from value to substance, other results behind:

Row | ID/g [1] | ID/g [3] | ID/g [4] | ID/g [5] | ID/g [6] | ID/g [7] | logP [8] | ID/g [9] | ID/g [10] | Ratio [11] | ID/g [12] | ID/g [13] | ID/g [14] | ID/g [15] | ID/g [16] | pKa [17] | ID/g [18] | logD [19] | ID/g [20] | Ratio [26] | Substance | also measured
4 | 3.13% | 17.9% | 17.9% | 2.73% | 1.84% | 2.08% | 1.7 | 3.44% | 0.84% | 4.5 | 1.35% | 1.96% | 18.7% | 0.18% | 27.3% | 9.7 | 0.7% | 0 pH7.4 | 3.23% | 2.3 | N-methyl-3-azapentane-1,5-dithiol complex [listing 2 of 6 here] | ID/g [2]: 0.14%; Ratio [21]: 1.2; Ratio [22]: 4.5; ID/g [23]: 0.39%; ID/g [24]: 0.57%; Ratio [25]: 1.6
5 | 3.23% | 11.7% | 15.3% | 3.27% | 1.17% | 1.34% | 3.7 | 3.35% | 0.73% | 2.6 | 1.44% | 2.07% | 17.7% | 0.13% | 35.3% | 9.9 | 1.25% | 1.1 pH7.4 | 3.26% | 2.2 | N-methyl-3-azapentane-1,5-dithiol complex [listing 5 of 6 here] | ID/g [2]: 0.08%; Ratio [28]: < 1; Ratio [21]: 1.6; Ratio [27]: < 1; Ratio [22]: 1; ID/g [23]: 0.26%; ID/g [24]: 0.53%; Ratio [25]: 2.4; Ratio [29]: < 1
6 | 2.83% | 10.1% | 13% | 5.73% | 1.74% | 3.49% | 2.7 | 2.39% | 1.15% | 1.7 | 2.05% | 3.4% | 6.1% | 0.24% | 7.11% | 8.3 | 1.66% | 1.6 pH7.4 | 2.55% | 1.4 | N-methyl-3-azapentane-1,5-dithiol complex [listing 6 of 6 here] | Ratio [27]: 1.1; ID/g [24]: 0.78%
